Key:
CDK2/human cyclin E = CDK2/human cyclin E (Homo sapiens, UniProt P24941); assay: Determination of activity of CDK2 kinase (Caliper mobility shift); format: biochemical; details: 10 μM ATP, 0.1 nM enzyme, 25° C. 6 hours; read-out: CDK2/CycE IC50
Procedure: The activity of CDK2 kinase in vitro was tested by the following method: • Final buffer: • 100 mM 4-hydroxyethyl piperazine ethanesulfonic acid, pH 7.5; • 0.1% bovine serum albumin; • 0.01% Triton X-100; • 1 mM dithiothreitol; • 5 mM magnesium chloride; • 10 μM sodium orthovanadate; • 10 μM sodium P-glycerophosphate; • 10 μM ATP; • 1% DMSO (from the compound to be tested); • Substrate Peptide: 1 μM FAM-[…]-OH, wherein FAM is 5-carboxyfluorescein; • 0.1 nM CDK2/human cyclin E.
(§1) 5 μL of buffer, 0.1 μL of compound to be tested (DMSO, 100 times the highest concentration) and 5 μL of substrate peptide buffer were added to a 384-well plate. The reaction was terminated with EDTA after culturing at 25° C. for 6 hours. Electrophoresis reading was started (Caliper LabChip® 3000 Drug Discovery System, blue laser (480 nm) for excitation, green CCD (520 nm) for detection of CCD2).

CDK4/human cyclin D1 = CDK4/human cyclin D1 (Homo sapiens, UniProt P11802); assay: Determination of activity of CDK4 kinase (Caliper mobility shift); format: biochemical; details: 25 μM ATP, 5 nM enzyme, 25° C. 6 hours; read-out: CDK4/CycD1 IC50
Chain of CDK4/human cyclin D1 (P11802 whole entry): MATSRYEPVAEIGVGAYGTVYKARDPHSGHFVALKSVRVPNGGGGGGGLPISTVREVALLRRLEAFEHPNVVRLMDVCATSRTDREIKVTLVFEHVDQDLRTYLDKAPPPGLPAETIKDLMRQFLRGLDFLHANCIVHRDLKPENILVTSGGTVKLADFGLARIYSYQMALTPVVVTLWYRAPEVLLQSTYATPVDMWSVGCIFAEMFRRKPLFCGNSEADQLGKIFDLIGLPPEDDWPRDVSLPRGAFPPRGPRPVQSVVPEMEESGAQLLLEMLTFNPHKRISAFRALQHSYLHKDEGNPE
Chain of CDK4/human cyclin D1 (P24385 whole entry partner): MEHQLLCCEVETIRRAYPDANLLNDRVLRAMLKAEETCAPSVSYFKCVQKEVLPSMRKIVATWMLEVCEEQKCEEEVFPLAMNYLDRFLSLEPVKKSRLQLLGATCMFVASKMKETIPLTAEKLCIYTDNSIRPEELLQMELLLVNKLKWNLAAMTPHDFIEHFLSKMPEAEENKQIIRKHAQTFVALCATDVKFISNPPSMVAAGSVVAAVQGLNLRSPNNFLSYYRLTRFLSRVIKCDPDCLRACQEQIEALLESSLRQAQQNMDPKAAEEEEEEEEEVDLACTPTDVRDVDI
Procedure: The activity of CDK4 kinase in vitro was tested by the following method: • Final buffer: • 100 mM 4-hydroxyethyl piperazine ethanesulfonic acid, pH 7.5; • 0.1% bovine serum albumin; • 0.01% Triton X-100; • 1 mM dithiothreitol; • 5 mM magnesium chloride; • 10 μM sodium orthovanadate; • 10 μM sodium P-glycerophosphate; • 25 μM ATP; • 1% DMSO (from the compound to be tested); • Substrate Peptide: 1 μM FAM-[…]-NH2 segment, wherein FAM is 5-carboxyfluorescein; • 5 nM CDK4/human cyclin D1.
as §1

MDA-MB-468 cells = assay: Determination of activity of MDA-MB-468 cells (CellTiter-Glo); format: cell-based; details: Homo sapiens, MDA-MB-468, 120 h, 5 days culture
Procedure: • MDA-MB-468 (ATCC No. HTB-132); • RPMI 1640 (Invitrogen No. 22400089); • FBS (Hyclone No. SV30087.03); • Pen Strep (Hyclone No. SV30010); • CellTiter-Glo (Promega No. G7573); • Medium: 89% RPMI 1640, 10% FBS and 1% Pen Strep;
300 MDA-MB-468 cells and 50 μL of medium were inoculated in a plate with 100 μL of PBS buffer added, which was then cultured for 24 hours at 37° C./5% CO2, then 250 nL of samples, which were taken from the compounds to be tested at ten test points and diluted with four times DMSO, were added to the plate wells and cultured for 5 days at 37° C./5% CO2, then 25 μL of CellTiter-Glo was added to each plate well, followed by centrifugation by rotating (1000 rpm) for 15 seconds, and vibration mixing (400 rpm) for 10 minutes, the microplate reader Envision was started to read.

CDK6/human cyclin D3 = biological target: T1, CDK6/human cyclin D3 (Homo sapiens, UniProt Q00534); assay: Determination of activity of CDK6 kinase (Caliper mobility shift); format: biochemical; details: 300 μM ATP, 2 nM enzyme, 25° C. 3 hours; read-out: CDK6/CycD3 IC50
T1 construct: purchased Carna 04-107
T1 sequence (Q00534 whole entry): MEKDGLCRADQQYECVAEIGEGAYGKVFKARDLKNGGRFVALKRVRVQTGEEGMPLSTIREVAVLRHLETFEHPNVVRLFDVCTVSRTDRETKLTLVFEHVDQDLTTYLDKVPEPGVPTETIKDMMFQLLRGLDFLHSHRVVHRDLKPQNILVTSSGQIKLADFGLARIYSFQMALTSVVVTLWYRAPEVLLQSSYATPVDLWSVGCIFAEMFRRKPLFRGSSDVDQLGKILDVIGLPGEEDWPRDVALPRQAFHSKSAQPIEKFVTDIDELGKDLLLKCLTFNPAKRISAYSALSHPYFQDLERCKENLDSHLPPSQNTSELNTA
T1 sequence (P30281 whole entry partner): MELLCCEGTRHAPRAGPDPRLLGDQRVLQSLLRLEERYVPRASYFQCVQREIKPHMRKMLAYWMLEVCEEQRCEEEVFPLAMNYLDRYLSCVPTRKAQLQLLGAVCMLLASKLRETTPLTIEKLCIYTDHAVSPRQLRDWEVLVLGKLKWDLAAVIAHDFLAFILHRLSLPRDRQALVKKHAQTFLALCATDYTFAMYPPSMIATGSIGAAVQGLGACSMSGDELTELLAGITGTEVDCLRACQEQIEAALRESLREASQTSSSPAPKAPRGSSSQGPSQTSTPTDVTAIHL
Procedure: The activity of CDK6 kinase in vitro was tested by the following method: • 2 nM CDK6/human cyclin D3 (Carna, No. 04-107) • Final buffer: • 100 mM 4-hydroxyethyl piperazine ethanesulfonic acid, pH 7.5; • 0.1% bovine serum albumin; • 0.01% Triton X-100; • 1 mM dithiothreitol; • 5 mM magnesium chloride; • 10 μM sodium orthovanadate; • 10 μM sodium P-glycerophosphate; • 300 μM ATP; • 1% DMSO (from the compound to be tested); • Substrate peptide: Dyrktide;
as §1, with “3” for “6”

Compound: CC(C)n1c(CF)nc2c(F)cc(-c3nc(Nc4ccc(CN5CCC(N(C)C)CC5)cn4)ncc3F)cc21 [Compound 1975]
- IC50 (CDK2/human cyclin E): 8.2 nM
- IC50 (CDK4/human cyclin D1): 1.55 nM
- IC50 (MDA-MB-468 cells): 457 nM
- IC50 (CDK6/human cyclin D3): 6.7 nM

Compound: Cc1nc2c(F)cc(-c3nc(Nc4ccc(CN5CCN(CCO)CC5)cn4)ncc3F)cc2n1C(C)C [Compound 1979]
- IC50 (CDK2/human cyclin E): 163 nM
- IC50 (CDK4/human cyclin D1): 0.83 nM
- IC50 (MDA-MB-468 cells): 1390 nM
- IC50 (CDK6/human cyclin D3): 4.1 nM

Compound: CCN1CCN(c2ccc(Nc3ncc(F)c(-c4cc(F)c5nc(CF)n(C(C)C)c5c4)n3)nc2)CC1 [Compound 1985]
- IC50 (CDK2/human cyclin E): 128 nM
- IC50 (CDK4/human cyclin D1): 0.98 nM
- IC50 (MDA-MB-468 cells): 454 nM
- IC50 (CDK6/human cyclin D3): 3 nM

Compound: Cc1nc2c(F)cc(-c3nc(Nc4ccc(N5CCC(N(C)CCO)CC5)cn4)ncc3F)cc2n1C(C)C [Compound 1963]
- IC50 (CDK2/human cyclin E): 101 nM
- IC50 (CDK4/human cyclin D1): 1.78 nM
- IC50 (MDA-MB-468 cells): 459 nM
- IC50 (CDK6/human cyclin D3): 1 nM

Compound: CCN1CCN(Cc2ccc(Nc3ncc(F)c(-c4cc(F)c5nc(CO)n(C(C)C)c5c4)n3)nc2)CC1 [Compound 1994]
- IC50 (CDK2/human cyclin E): 82 nM
- IC50 (CDK4/human cyclin D1): 0.67 nM
- IC50 (MDA-MB-468 cells): 485 nM
- IC50 (CDK6/human cyclin D3): 8.7 nM

Compound: CC(C)n1c(CF)nc2c(F)cc(-c3nc(Nc4ccc(N5CCC(N(C)C)CC5)cn4)ncc3F)cc21 [Compound 1984]
- IC50 (CDK2/human cyclin E): 231 nM
- IC50 (CDK4/human cyclin D1): 1.25 nM
- IC50 (MDA-MB-468 cells): 344 nM
- IC50 (CDK6/human cyclin D3): 3.9 nM

Compound: CNC1CCN(c2ccc(Nc3ncc(F)c(-c4cc(F)c5nc(C)n(C(C)C)c5c4)n3)nc2)CC1 [Compound 1967]
- IC50 (CDK2/human cyclin E): 122 nM
- IC50 (CDK4/human cyclin D1): 0.17 nM
- IC50 (MDA-MB-468 cells): 682 nM
- IC50 (CDK6/human cyclin D3): 1.23 nM

Compound: Cc1nc2c(F)cc(-c3nc(Nc4ccc(N5CCN(CCO)CC5)cn4)ncc3F)cc2n1C(C)C [Compound 1986]
- IC50 (CDK2/human cyclin E): 95 nM
- IC50 (CDK4/human cyclin D1): 1.2 nM
- IC50 (MDA-MB-468 cells): 573 nM
- IC50 (CDK6/human cyclin D3): 1.8 nM

Compound: CC(C)n1c(CF)nc2c(F)cc(-c3nc(Nc4ccc(N5CCC(N(C)CCO)CC5)cn4)ncc3F)cc21 [Compound 1990]
- IC50 (CDK2/human cyclin E): 5.3 nM
- IC50 (CDK4/human cyclin D1): 1.54 nM
- IC50 (MDA-MB-468 cells): 276 nM
- IC50 (CDK6/human cyclin D3): 4.8 nM

Compound: CC(C)n1c(CF)nc2c(F)cc(-c3nc(Nc4ccc(CN5CCC(N(C)CCO)CC5)cn4)ncc3F)cc21 [Compound 1995]
- IC50 (CDK2/human cyclin E): 6.2 nM
- IC50 (CDK4/human cyclin D1): 1.75 nM
- IC50 (MDA-MB-468 cells): 186 nM
- IC50 (CDK6/human cyclin D3): 10.1 nM

Compound: COCCN1CCN(c2ccc(Nc3ncc(F)c(-c4cc(F)c5nc(C)n(C(C)C)c5c4)n3)nc2)CC1 [Compound 1988]
- IC50 (CDK2/human cyclin E): 92 nM
- IC50 (CDK4/human cyclin D1): 0.75 nM
- IC50 (MDA-MB-468 cells): 529 nM
- IC50 (CDK6/human cyclin D3): 1.1 nM

Compound: Cc1nc2c(F)cc(-c3nc(Nc4ccc(CN5CCC(N(C)CCO)CC5)cn4)ncc3F)cc2n1C(C)C [Compound 1964]
- IC50 (CDK2/human cyclin E): 313 nM
- IC50 (CDK4/human cyclin D1): 1.4 nM
- IC50 (MDA-MB-468 cells): 126 nM
- IC50 (CDK6/human cyclin D3): 8.6 nM

Compound: Cc1nc2c(F)cc(-c3nc(Nc4ccc(N5CCN(CC(C)O)CC5)cn4)ncc3F)cc2n1C(C)C (centres unmarked) [Compound 1987]
- IC50 (CDK2/human cyclin E): 355 nM
- IC50 (CDK4/human cyclin D1): 1.2 nM
- IC50 (MDA-MB-468 cells): 345 nM
- IC50 (CDK6/human cyclin D3): 5.9 nM

Compound: CCN1CCN(Cc2ccc(Nc3ncc(F)c(-c4cc(F)c5nc(CF)n(C(C)C)c5c4)n3)nc2)CC1 [Compound 1978]
- IC50 (CDK2/human cyclin E): 459 nM
- IC50 (CDK4/human cyclin D1): 2.6 nM
- IC50 (MDA-MB-468 cells): 1150 nM
- IC50 (CDK6/human cyclin D3): 9.8 nM

— patent US12673935B2, “Pyrimidine derivative, and preparation method therefor and use thereof” (CGENETECH (SUZHOU, CHINA) CO., LTD., priority 2020, dated 2026)
